Reference: US10444228B2, “Method of screening a candidate compound for inducing bile canalicular function disorders” (Biopredic International, priority 2014, dated 2019)
One block for each compound: values may come before it.

How the values were obtained:
Type in all cases: cell-based, human
[1] = system: differentiated HepaRG cells (bile canalicular lumen); assay: Bile canaliculi lumen morphology by F-actin (phalloidin) / CDFDA imaging; conditions: for change of bile canaliculus lumen (constriction or swelling): Example 1, 2 h exposure, F-actin phalloidin staining; for change of bile canaliculus lumen (constriction or swelling) / change of biliary lumen (constriction or swelling): differentiated HepaRG cells; for change of biliary lumen (constriction or swelling) / induction of cholestasis (phenotype with swollen lumen): Example 2; for change of biliary lumen (constriction or swelling): F-actin phalloidin and CDFDA staining; for induction of cholestasis (phenotype with swollen lumen): HepaRG cells
Experimental: Two week DMSO-treated HepaRG cultures were exposed to 50 μM CPZ for 2 h and analyzed at different times during exposure. Constriction was evidenced by F-actin staining using phalloidin.
Comparison of the cytoskeleton organization of control cells versus CPZ and Y27632 treated cultures for 2 h. Fibers of F-actin accumulated at the biliary were labelling by phalloidin and counterstaining of nuclei was performed by Hoechst staining.
ii)—Analysis of the F-actin organization and biliary lumen changes using phalloidin and fluorescent CDFDA staining. After exposure to the candidate compounds, cells were washed twice, fixed with Paraformaldehyde (4%) fixative for 20 min, washed and stained with phalloidin for 10 min. For CDFDA staining, details are provided below.
Images obtained on microscope were used for calculating the size of the biliary lumen after treatment. Appropriate algorithm has been developed for quantification using Cellomics equipment.

[2] = system: phosphorylated myosin light chain (P-MYL9); assay: Western blotting of phosphorylated myosin light chain; conditions: for P-myosin (P-MYL9) level by western blotting: Example 2, after 1 hour
Experimental: Accumulation of phosphorylated light chain myosin was evidenced by western blotting technique in using the (P)-MYl2 antibody. Control cells, 2h-CPZ treated cells and 2h-y27632-treated cells were compared. Cell lysates were prepared.
Accumulation of the phosphorylated myosin light chain was performed by western blotting using p-Myl antibody.

Rho-kinase = Rho-kinase activity (Merck-Millipore kit) in treated cell lysates; conditions: differentiated HepaRG cells, 2 h, 1-50 μM
Experimental: Differentiated HepaRG cells were exposed to increased doses of CPZ (from 1-50 μM) for 2 h and Rho-kinase activity was measured (kit Merck-Millipore) according to manufacturer. Untreated cells and cells exposed to the Rho-kinase inhibitor Y27632 (10 μM) were used for controls.

ZO-1 = assay: Immunolocalization of junctional protein ZO-1; conditions: treated HepaRG cultures
[3] = system: differentiated HepaRG cells (canalicular clearance); assay: Biliary clearance activity with CDFDA marker compound; conditions: versus control cells
Experimental: The first step was incubation with the marker compound. CDFDA was preferentially used. After washing, differentiated cells plated in wells from 24 well-plates, were washed with HBSS buffer twice and incubated with 250 μl of CDFDA solution prepared at the final concentration of 3 μM in HBSS buffer containing Ca++ buffer (pH 7.4). After 30 min cells were washed with the same buffer. […] Quantification of the fluorescent dye into the medium is performed. A comparative evolution was established between control (untreated) and CPZ- and EF-treated cells. […] Calculation of the amount of released fluorescent dye molecules was performed by spectrometry and the canalicular clearance efficiency (CCE) was determined per time unit.

[4] = system: HepaRG cells (canalicular efflux); assay: Efflux of [3H]-taurocholate
Experimental: Efflux of Taurocholate (TA). Cells were first exposed to [3H]-TA for 30 min, then washed with PBS and incubated with or without CPZ at different time points (from 0 to 6 hours) in a standard buffer with Ca2+ and Mg2+. After the incubation time, cells were washed with PBS and incubated for 5 min with a Ca2+ and Mg2+− free buffer in order to disrupt the canalicular tight junctions. Then they were scraped in 0.1 N NaOH; the remaining radiolabeled substrate was measured through scintillation counting to determinate TA efflux. To discriminate between basolateral and canalicular efflux, cells were incubated in parallel in either standard or Ca2+ and Mg2+-free buffer for 30 minutes after TA uptake before measuring the remaining radiolabeled TA. Canalicular efflux was calculated using this equation: Canalicular efflux: Radioactivity in efflux mediumCa2+ and Mg2+ free buffer—Radioactivity in efflux medium Standard buffer. Differentiated cells were exposed or not to CPZ (50 μM for 2 h) before radiolabelled TA addition.

[5] = system: differentiated HepaRG cells (canalicular clearance); assay: Biliary clearance with Rhodamin 123 marker compound
Experimental: Another assay was performed with Rhodamin 123 as marker compound.

HepaRG cells = assay: Accumulation of labelled taurocholate in cells including canaliculi space; conditions: increased concentrations, compared to control
Excerpt: The data also provides information related to junctional complex organization and the role of metalloproteinases in controlling permeability.

Compound: Cyclosporin A [CsA]
change of bile canaliculus lumen (constriction or swelling) [1]: inducing lumen constriction | change of biliary lumen (constriction or swelling) [1]: lumen constriction | change of biliary lumen (constriction or swelling) ([1]; listed as cyclosporine A): constriction | P-myosin (P-MYL9) level by western blotting [2]: accumulation of P-myosin | Rho-kinase activity (Rho-kinase): activate the Rho-kinase activity

Compound: C=CC[C@@H]1/C=C(\C)C[C@H](C)C[C@H](OC)[C@H]2O[C@@](O)(C(=O)C(=O)N3CCCC[C@H]3C(=O)O[C@H](/C(C)=C/[C@@H]3CC[C@@H](O)[C@H](OC)C3)[C@H](C)[C@@H](O)CC1=O)[C@H](C)C[C@@H]2OC [Fk, Tacrolimus]
change of bile canaliculus lumen (constriction or swelling) [1]: inducing lumen constriction | Rho-kinase activity (Rho-kinase): activate the Rho-kinase activity

Compound: CN(C)CCCN1c2ccccc2Sc2ccc(Cl)cc21 [CPZ, chlorpromazine]
change of bile canaliculus lumen (constriction or swelling) [1]: Constriction of canaliculus lumen | change of bile canaliculus lumen (constriction or swelling) ([1]; listed as chlorpromazine): constriction of the canaliculus lumen | change of biliary lumen (constriction or swelling) [1]: lumen constriction | change of biliary lumen (constriction or swelling) ([1]; listed as chlorpromazine): abnormal and permanent lumen constriction | distribution of ZO-1 at the biliary pole (ZO-1): appears normal | myosin-light chain phosphorylation (immunoblotting) ([2]; Example 1, 2 h treated HepaRG cells): accumulation of myosin-light chain phosphorylation | P-myosin (P-MYL9) level by western blotting [2]: accumulation of P-myosin | clearance of CDFDA dye out of the canalicular space [3]: delay in the clearance of dye | clearance of CDFDA dye out of the canalicular space ([3]; listed as chlorpromazine): delay of clearance | Rho-kinase activity (Rho-kinase): dose-dependent activation of Rho-kinase | taurocholate efflux ([4]; CPZ 50 μM): decrease of taurocholate efflux | clearance of Rhodamin 123 dye [5]: delay

Compound: C[C@@H](N)[C@H]1CC[C@H](C(=O)Nc2ccncc2)CC1 [Y27632]
change of bile canaliculus lumen (constriction or swelling) [1]: swelling/relaxation | change of biliary lumen (constriction or swelling) [1]: swelling | P-myosin (P-MYL9) level by western blotting [2]: inhibition of P-myosin phosphorylation | clearance of CDFDA dye out of the canalicular space [3]: delay in biliary clearance | clearance of CDFDA dye out of the canalicular space ([3]; listed as EF): delay in the clearance of dye | accumulation of labelled taurocholate in cells including canaliculi space (HepaRG cells): abnormal accumulation of labelled taurocholate | taurocholate efflux with Rho-kinase inhibitor added to CPZ ([4]; in presence of CPZ): recovery of taurocholate efflux activity | clearance of Rhodamin 123 dye [5]: delay

induction of cholestasis (phenotype with swollen lumen) [1]: inducing cholestasis
Compound: C[C@H](CCC(=O)O)[C@H]1CC[C@H]2[C@@H]3CC[C@@H]4C[C@H](O)CC[C@]4(C)[C@H]3C[C@H](O)[C@]12C [DCA, Deoxycholic acid]

Compound: COc1ccccc1Oc1c(NS(=O)(=O)c2ccc(C(C)(C)C)cc2)nc(-c2ncccn2)nc1OCCO [bosentan]
change of biliary lumen (constriction or swelling) [1]: abnormal and prolonged canalicular lumen swelling

Compound: CC(=O)/C(C)=N/O [BDM]
P-myosin (P-MYL9) level by western blotting [2]: inhibition of P-myosin phosphorylation

Compound: S=C=Nc1cccc2ccccc12 [ANIT]
change of bile canaliculus lumen (constriction or swelling) [1]: inducing lumen constriction | induction of cholestasis (phenotype with swollen lumen) [1]: inducing cholestasis | change of biliary lumen (constriction or swelling) [1]: relaxation/swelling | distribution of ZO-1 at the biliary pole (ZO-1): appears normal | Rho-kinase activity (Rho-kinase): activate the Rho-kinase activity

induction of cholestasis (phenotype with swollen lumen) [1]: inducing cholestasis
Compound: O=S(=O)(c1cccc2cnccc12)N1CCCNCC1 [Fasudil]
change of biliary lumen (constriction or swelling) [1]: relaxation/swelling | distribution of ZO-1 at the biliary pole (ZO-1): appears normal | accumulation of labelled taurocholate in cells including canaliculi space (HepaRG cells): abnormal accumulation of labelled taurocholate | accumulation of labelled taurocholate in cells including canaliculi space (HepaRG cells; listed as fasudil): highest values
